Laboratory results taken from PubChem BioAssay AID2060492 (Molecular Pharmacology Branch, DTP, NCI, 2025).
pIC50: −log10 of the molar value.

Test system: 695427-040-R-J1-PDC complex spheroids, viability percent T/C
Assay: Anticancer human tumor 695427-040-R-J1-PDC patient-derived colon adenocarcinoma cell line growth inhibition [GQUAD]
Conditions: for pIC50: curve of first compound; for viability, T/C: stronger effect = lower value
Procedure, shortened: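 Viability of tumor cells grown as complex spheroids with endothelial and stromal cells, exposed to drug combinations. Top concentration at or near clinical Cmax (else 10 microM), diluted in half-log increments.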

[1] = second compound 0.0316 µM, first compound 0.000999 µM
[2] = second compound 0.0316 µM, first compound 0.00316 µM
[3] = second compound 0.0316 µM, first compound 0.00999 µM
[4] = second compound 0.0316 µM, first compound 0.0316 µM
[5] = second compound 0.0316 µM, first compound 0.0999 µM
[6] = second compound 0.0316 µM, first compound 0.316 µM
[7] = second compound 0.1 µM, first compound 0.000999 µM
[8] = second compound 0.1 µM, first compound 0.00316 µM
[9] = second compound 0.1 µM, first compound 0.00999 µM
[10] = second compound 0.1 µM, first compound 0.0316 µM
[11] = second compound 0.1 µM, first compound 0.0999 µM
[12] = second compound 0.1 µM, first compound 0.316 µM
[13] = second compound 0.316 µM, first compound 0.000999 µM
[14] = second compound 0.316 µM, first compound 0.00316 µM
[15] = second compound 0.316 µM, first compound 0.00999 µM
[16] = second compound 0.316 µM, first compound 0.0316 µM
[17] = second compound 0.316 µM, first compound 0.0999 µM
[18] = second compound 0.316 µM, first compound 0.316 µM
[19] = second compound 1 µM, first compound 0.000999 µM
[20] = second compound 1 µM, first compound 0.00316 µM
[21] = second compound 1 µM, first compound 0.00999 µM
[22] = second compound 1 µM, first compound 0.0316 µM
[23] = second compound 1 µM, first compound 0.0999 µM
[24] = second compound 1 µM, first compound 0.316 µM
[25] = second compound 3.16 µM, first compound 0.000999 µM
[26] = second compound 3.16 µM, first compound 0.00316 µM
[27] = second compound 3.16 µM, first compound 0.00999 µM
[28] = second compound 3.16 µM, first compound 0.0316 µM
[29] = second compound 3.16 µM, first compound 0.0999 µM
[30] = second compound 3.16 µM, first compound 0.316 µM
[31] = second compound 10 µM, first compound 0.000999 µM
[32] = second compound 10 µM, first compound 0.00316 µM
[33] = second compound 10 µM, first compound 0.00999 µM
[34] = second compound 10 µM, first compound 0.0316 µM
[35] = second compound 10 µM, first compound 0.0999 µM
[36] = second compound 10 µM, first compound 0.316 µM
[37] = second compound 0.0316 µM, first compound 0.1 µM
[38] = second compound 0.0316 µM, first compound 1 µM
[39] = second compound 0.0316 µM, first compound 3.16 µM
[40] = second compound 0.0316 µM, first compound 10 µM
[41] = second compound 0.1 µM, first compound 0.1 µM
[42] = second compound 0.1 µM, first compound 1 µM
[43] = second compound 0.1 µM, first compound 3.16 µM
[44] = second compound 0.1 µM, first compound 10 µM
[45] = second compound 0.316 µM, first compound 0.1 µM
[46] = second compound 0.316 µM, first compound 1 µM
[47] = second compound 0.316 µM, first compound 3.16 µM
[48] = second compound 0.316 µM, first compound 10 µM
[49] = second compound 1 µM, first compound 0.1 µM
[50] = second compound 1 µM, first compound 1 µM
[51] = second compound 1 µM, first compound 3.16 µM
[52] = second compound 1 µM, first compound 10 µM
[53] = second compound 3.16 µM, first compound 0.1 µM
[54] = second compound 3.16 µM, first compound 1 µM
[55] = second compound 3.16 µM, first compound 3.16 µM
[56] = second compound 3.16 µM, first compound 10 µM
[57] = second compound 10 µM, first compound 0.1 µM
[58] = second compound 10 µM, first compound 1 µM
[59] = second compound 10 µM, first compound 3.16 µM
[60] = second compound 10 µM, first compound 10 µM
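Further: spheroids exposed to compounds for seven days before readout.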

CC[C@@]1(O)C(=O)OCc2c1cc1n(c2=O)Cc2cc3c(CN(C)C)c(O)ccc3nc2-1 + Cc1[nH]c2ccc(F)cc2c1-c1nc2c3cccnc3c3ncccc3c2[nH]1
pIC50 (second compound 0.0316 µM): < 6.50
pIC50 (second compound 0.1 µM): < 6.50
pIC50 (second compound 0.316 µM): < 6.50
pIC50 (second compound 1 µM): < 6.50
pIC50 (second compound 3.16 µM): < 6.50
pIC50 (second compound 10 µM): < 6.50
viability, T/C [1]: 108%
viability, T/C [2]: 105%
viability, T/C [3]: 109%
viability, T/C [4]: 71.5%
viability, T/C [5]: 98.3%
viability, T/C [6]: 82.1%
viability, T/C [7]: 94.5%
viability, T/C [8]: 89.4%
viability, T/C [9]: 94.1%
viability, T/C [10]: 78.7%
viability, T/C [11]: 94.2%
viability, T/C [12]: 89.8%
viability, T/C [13]: 97.3%
viability, T/C [14]: 90.4%
viability, T/C [15]: 92.9%
viability, T/C [16]: 88.2%
viability, T/C [17]: 101%
viability, T/C [18]: 78.9%
viability, T/C [19]: 85.2%
viability, T/C [20]: 97.2%
viability, T/C [21]: 92.6%
viability, T/C [22]: 95%
viability, T/C [23]: 91.3%
viability, T/C [24]: 73.2%
viability, T/C [25]: 62.5%
viability, T/C [26]: 82.9%
viability, T/C [27]: 79.3%
viability, T/C [28]: 72.4%
viability, T/C [29]: 84.4%
viability, T/C [30]: 77.3%
viability, T/C [31]: 58.9%
viability, T/C [32]: 78.8%
viability, T/C [33]: 83.8%
viability, T/C [34]: 78.2%
viability, T/C [35]: 89.5%
viability, T/C [36]: 73.1%

CCc1c2c(nc3ccc(O)cc13)-c1cc3c(c(=O)n1C2)COC(=O)[C@]3(O)CC + Cc1[nH]c2ccc(F)cc2c1-c1nc2c3cccnc3c3ncccc3c2[nH]1
pIC50 (second compound 0.0316 µM): 6.77
pIC50 (second compound 0.1 µM): 6.79
pIC50 (second compound 0.316 µM): 6.95
pIC50 (second compound 1 µM): 6.97
pIC50 (second compound 3.16 µM): 7.08
pIC50 (second compound 10 µM): 6.97
viability, T/C [1]: 95.4%
viability, T/C [2]: 74%
viability, T/C [3]: 87.9%
viability, T/C [4]: 57.8%
viability, T/C [5]: 62%
viability, T/C [6]: 40.8%
viability, T/C [7]: 93.7%
viability, T/C [8]: 71.6%
viability, T/C [9]: 80.2%
viability, T/C [10]: 57.7%
viability, T/C [11]: 57.6%
viability, T/C [12]: 43%
viability, T/C [13]: 99.5%
viability, T/C [14]: 64.2%
viability, T/C [15]: 82.2%
viability, T/C [16]: 63.2%
viability, T/C [17]: 56.1%
viability, T/C [18]: 34.5%
viability, T/C [19]: 67.7%
viability, T/C [20]: 85.8%
viability, T/C [21]: 82%
viability, T/C [22]: 64.6%
viability, T/C [23]: 52.5%
viability, T/C [24]: 37.6%
viability, T/C [25]: 72%
viability, T/C [26]: 74.5%
viability, T/C [27]: 63.5%
viability, T/C [28]: 59.5%
viability, T/C [29]: 48.7%
viability, T/C [30]: 33.2%
viability, T/C [31]: 71.9%
viability, T/C [32]: 72.2%
viability, T/C [33]: 66.4%
viability, T/C [34]: 60.8%
viability, T/C [35]: 49.8%
viability, T/C [36]: 37.4%

Cc1cccc(N(C)C(=O)C2C(O)CCN2c2nc(C)cc(C(F)(F)F)c2C#N)c1 (stereo not drawn) + Cc1[nH]c2ccc(F)cc2c1-c1nc2c3cccnc3c3ncccc3c2[nH]1
pIC50 (second compound 0.0316 µM): < 5.00
pIC50 (second compound 0.1 µM): < 5.00
pIC50 (second compound 0.316 µM): < 5.00
pIC50 (second compound 1 µM): < 5.00
pIC50 (second compound 3.16 µM): < 5.00
pIC50 (second compound 10 µM): < 5.00
viability, T/C [4]: 109%
viability, T/C [37]: 124%
viability, T/C [6]: 105%
viability, T/C [38]: 106%
viability, T/C [39]: 95.2%
viability, T/C [40]: 92.3%
viability, T/C [10]: 102%
viability, T/C [41]: 88%
viability, T/C [12]: 107%
viability, T/C [42]: 76.3%
viability, T/C [43]: 104%
viability, T/C [44]: 86.4%
viability, T/C [16]: 93.2%
viability, T/C [45]: 91.2%
viability, T/C [18]: 98.8%
viability, T/C [46]: 76.9%
viability, T/C [47]: 91.4%
viability, T/C [48]: 80.5%
viability, T/C [22]: 79.7%
viability, T/C [49]: 89.4%
viability, T/C [24]: 85.2%
viability, T/C [50]: 82.5%
viability, T/C [51]: 93.8%
viability, T/C [52]: 87.1%
viability, T/C [28]: 70.2%
viability, T/C [53]: 75.2%
viability, T/C [30]: 84.8%
viability, T/C [54]: 91.1%
viability, T/C [55]: 95.6%
viability, T/C [56]: 72.6%
viability, T/C [34]: 68.4%
viability, T/C [57]: 78.4%
viability, T/C [36]: 83.8%
viability, T/C [58]: 79.9%
viability, T/C [59]: 88.3%
viability, T/C [60]: 72%

O=C(c1cc(Cc2n[nH]c(=O)c3ccccc23)ccc1F)N1CCN(C(=O)C2CC2)CC1 + Cc1[nH]c2ccc(F)cc2c1-c1nc2c3cccnc3c3ncccc3c2[nH]1
pIC50 (second compound 0.0316 µM): < 5.00
pIC50 (second compound 0.1 µM): < 5.00
pIC50 (second compound 0.316 µM): < 5.00
pIC50 (second compound 1 µM): < 5.00
pIC50 (second compound 3.16 µM): > 7.50
pIC50 (second compound 10 µM): < 5.00
viability, T/C [4]: 97.7%
viability, T/C [37]: 105%
viability, T/C [6]: 101%
viability, T/C [38]: 82.3%
viability, T/C [39]: 94.6%
viability, T/C [40]: 95.2%
viability, T/C [10]: 114%
viability, T/C [41]: 93.4%
viability, T/C [12]: 97.7%
viability, T/C [42]: 78.3%
viability, T/C [43]: 93.2%
viability, T/C [44]: 84.9%
viability, T/C [16]: 105%
viability, T/C [45]: 89.1%
viability, T/C [18]: 91.5%
viability, T/C [46]: 91.1%
viability, T/C [47]: 96%
viability, T/C [48]: 102%
viability, T/C [22]: 84.3%
viability, T/C [49]: 87.4%
viability, T/C [24]: 73.1%
viability, T/C [50]: 78.5%
viability, T/C [51]: 99.5%
viability, T/C [52]: 79.2%
viability, T/C [28]: 47.6%
viability, T/C [53]: 87.2%
viability, T/C [30]: 74.8%
viability, T/C [54]: 69.1%
viability, T/C [55]: 91%
viability, T/C [56]: 87.4%
viability, T/C [34]: 62.6%
viability, T/C [57]: 69.1%
viability, T/C [36]: 92.1%
viability, T/C [58]: 82.5%
viability, T/C [59]: 75.9%
viability, T/C [60]: 89.8%
